In patent US9051310B2, “Nicotinamide derivative or salt thereof” (FUJIFILM Corporation, priority 2011, dated 2015):

Columns and labels:
[1] = system: THP-1 cells (TNFα secretion on human IgG-coated plate); assay: TNFα generation assay; type: cell-based; conditions: IFN-γ differentiated THP-1 cells, 7 hours, AlphaLISA, read-out: IC50 of TNFα generation inhibitory activity
In short: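 THP-1 cells were differentiated with 10 ng/ml IFN-γ for 2 days, then preincubated with compound for 30 min at room temperature. They were then plated at 5×10^4 cells/well on plates coated with human IgG (10 μg/ml). TNFα secreted over 7 h of culture was quantified by AlphaLISA.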

[2] = target: T1, glutathione S-transferase (GST)-linked full-length human Syk protein (Homo sapiens, UniProt P43405); assay: Syk enzyme assay; type: biochemical; conditions: 0.83 nM Syk, time-resolved fluorescence; read-out: IC50 of Syk-inhibitory activity
T1 construct: glutathione S-transferase (GST)-linked full-length human Syk protein; purchased Carna Biosciences; host or cells: Baculovirus expression system
In short: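 Phosphotyrosine on a biotin-peptide substrate (0.5 μM) was read by time-resolved fluorescence at 615 and 665 nm with Eu-anti-pTyr antibody and APC-streptavidin after 1 h EDTA stop.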

Structure (SMILES)	IC50 [1]	IC50 [2]
C[C@H](N)[C@H](Nc1nc(Nc2ccc3cnn(C)c3c2)c(C(N)=O)cc1F)C1CCC1 [Example 2-10, 6-(((1R,2S)-2-amino-1-cyclobutylpropyl)amino)-5-fluoro-2-((1-methyl-1H-indazol-6-yl)amino)nicotinamide]	< 0.065 µM	< 0.01 µM
CC[C@@H](Nc1nc(Nc2cc(Cl)c3c(cnn3C)c2)c(C(N)=O)cc1F)[C@H](C)N [Example 2-148, 6-(((2S,3R)-2-aminopentan-3-yl)amino)-2-((7-chloro-1-methyl-1H-indazol-5-yl)amino)-5-fluoronicotinamide]	0.065 to 0.13 µM	< 0.01 µM
CCn1ncc2cc(Nc3nc(N[C@H](c4cccs4)[C@H](C)N)c(F)cc3C(N)=O)ccc21 [Example 2-416]	< 0.065 µM	< 0.01 µM
C[C@H](N)[C@H](Nc1nc(Nc2ccc(F)cc2)c(C(N)=O)cc1F)C1CC1 [Example 2-58, 6-(((1R,2S)-2-amino-1-cyclopropylpropyl)amino)-5-fluoro-2-((4-fluorophenyl)amino)nicotinamide]	0.13 to 0.2 µM	0.01 to 0.05 µM
C[C@H](N)[C@H](Nc1nc(Nc2ccnc(N3CCOCC3)c2F)c(C(N)=O)cc1F)C1CC1 [Example 2-233, 6-(((1R,2S)-2-amino-1-cyclopropylpropyl)amino)-5-fluoro-2-((3-fluoro-2-morpholinopyridin-4-yl)amino)nicotinamide]	0.13 to 0.2 µM	0.01 to 0.05 µM
CC[C@@H](Nc1nc(Nc2cccc(-n3ccnn3)c2)c(C(N)=O)cc1F)[C@H](C)N [Example 2-476, 2-((3-(1H-1,2,3-triazol-1-yl)phenyl)amino)-6-(((2S,3R)-2-aminopentan-3-yl)amino)-5-fluoronicotinamide]	0.065 to 0.13 µM	< 0.01 µM
COc1cc(Nc2nc(N[C@H](C)[C@@H](N)C3CC3)c(F)cc2C(N)=O)cc(OC)c1 [Example 2-229, 6-(((1S,2R)-1-amino-1-cyclopropylpropan-2-yl)amino)-2-((3,5-dimethoxyphenyl)amino)-5-fluoronicotinamide]	0.13 to 0.2 µM	0.01 to 0.05 µM
CCn1ncc2cc(Nc3nc(N[C@H](C)[C@@H](N)C4CC4)c(F)cc3C(N)=O)ccc21 [Example 2-230, 6-(((1S,2R)-1-amino-1-cyclopropylpropan-2-yl)amino)-2-((1-ethyl-1H-indazol-1-5-yl)amino)-5-fluoronicotinamide]	0.065 to 0.13 µM	0.01 to 0.05 µM
Cc1cc(C)cc(Nc2nc(N[C@H](C3CCC3)[C@H](C)N)c(F)cc2C(N)=O)c1 [Example 2-26, 6-(((1R,2S)-2-amino-1-cyclobutylpropyl)amino)-2-((3,5-dimethylphenyl)amino)-5-fluoronicotinamide]	0.13 to 0.2 µM	< 0.01 µM
CC[C@H](N)[C@@H](C)Nc1nc(Nc2ccc3cnn(C)c3c2)c(C(N)=O)cc1F [Example 2-39, 6-(((2R,3S)-3-aminopentan-2-yl)amino)-5-fluoro-2-((1-methyl-1H-indazol-6-yl)amino)nicotinamide]	< 0.065 µM	< 0.01 µM
CC[C@@H](Nc1nc(Nc2cnc(C)c(F)c2)c(C(N)=O)cc1F)[C@H](C)N [Example 2-222, 6-(((2S,3R)-2-aminopentan-3-yl)amino)-5-fluoro-2-((5-fluoro-6-methylpyridin-3-yl)amino)nicotinamide]	0.13 to 0.2 µM	0.01 to 0.05 µM
COCCn1ncc2c(Nc3nc(N[C@@H]4CCCC[C@@H]4N)c(F)cc3C(N)=O)cc(F)cc21 [Example 2-374, 6-(((1R,2S)-2-aminocyclohexyl)amino)-5-fluoro-2-((6-fluoro-1-(2-methoxyethyl)-1H-indazol-4-yl)amino)nicotinamide]	0.13 to 0.2 µM	< 0.01 µM
COCCOc1cc(Nc2nc(N[C@H](C3CCC3)[C@H](C)N)c(F)cc2C(N)=O)ccn1 [Example 2-7, 6-(((1R,2S)-2-amino-1-cyclobutylpropyl)amino)-5-fluoro-2-((2-(2-methoxyethoxy)pyridin-4-yl)amino)nicotinamide]	0.065 to 0.13 µM	< 0.01 µM
CC[C@H](N)[C@@H](C)Nc1nc(Nc2ccnc(OCCOC)c2)c(C(N)=O)cc1F [Example 2-42, 6(((2R,3S)-3-aminopentan-2-yl)amino)-5-2-((2-(2-methoxyethoxy)pyridin-4-yl)amino)nicotinamide]	0.065 to 0.13 µM	0.01 to 0.05 µM
CCCC[C@@H](Nc1nc(Nc2cnc3c(c2)c(OC)nn3C)c(C(N)=O)cc1F)[C@H](C)N [Example 2-254, 6-(((2S,3R)-2-aminoheptan-3-yl)amino)-5-fluoro-2-((3-methoxy-1-methyl-1H-pyrazolo[3,4-b]pyridin-5-yl)amino)nicotinamide]	0.13 to 0.2 µM	< 0.01 µM
CCn1ncc2c(Nc3nc(N[C@H](COC)[C@H](C)N)c(F)cc3C(N)=O)cccc21 [Example 2-122, 6-(((2S,3S)-3-amino-1-methoxybutan-2-yl)amino)-2-((1-ethyl-1H-indazol-4-yl)amino)-5-fluoronicotinamide]	0.13 to 0.2 µM	0.01 to 0.05 µM
CCn1ncc2cc(Nc3nc(N[C@H](C4CCC4)[C@H](C)N)c(F)cc3C(N)=O)ccc21 [Example 2-9]	0.065 to 0.13 µM	< 0.01 µM
CC[C@@H](Nc1nc(Nc2cc(F)c3c(c2)c(OC)nn3C)c(C(N)=O)cc1F)[C@H](C)N [Example 2-152, 6-(((2S,3R)-2-aminopentan-3-yl)amino)-5-fluoro-2-((7-fluoro-3-methoxy-1-methyl-1H-indazol-5-yl)amino)nicotinamide]	0.13 to 0.2 µM	< 0.01 µM

Next, values leading:

IC50 [1]	IC50 [2]	Structure (SMILES)
0.13 to 0.2 µM	0.01 to 0.05 µM	CCOC[C@@H](Nc1nc(Nc2cc(OC)cc(OC)c2)c(C(N)=O)cc1F)[C@H](C)N [Example 2-268, 6-(((2S,3S)-3-amino-1-ethoxybutan-2-yl)amino)-2-((3,5-dimethoxyphenyl)amino)-5-fluoronicotinamide]
0.13 to 0.2 µM	0.01 to 0.05 µM	COc1ncc(Nc2nc(N[C@@H]3CCOC[C@@H]3N)c(F)cc2C(N)=O)cc1-n1ccnn1 [Example 2-215, 6-(((3R,4R)-3-aminotetrahydro-2H-pyran-4-yl)amino)-5-fluoro-2-((6-methoxy-5-(1H-1,2,3-triazol-1-yl)pyridin-3-yl)amino)nicotinamide]
0.13 to 0.2 µM	< 0.01 µM	COc1cc(Nc2nc(N[C@H](C3CCC3)[C@H](C)N)c(F)cc2C(N)=O)cc(OC)n1 [Example 2-6, 6-(((1R,2S)-2-amino-1-cyclobutylpropyl)amino)-2-((2,6-dimethoxypyridin-4-yl)amino)-5-fluoronicotinamide]
0.065 to 0.13 µM	< 0.01 µM	CCC[C@@H](Nc1nc(Nc2cc(F)c3c(c2)c(N(C)C)nn3C)c(C(N)=O)cc1F)[C@H](C)N [Example 2-187, 6-(((2S,3R)-2-aminohexan-3-yl)amino)-2-((3-(dimethylamino)-7-fluoro-1-methyl-1H-indazol-5-yl)amino)-5-fluoronicotinamide]
0.13 to 0.2 µM	< 0.01 µM	COc1nn(C)c2c(F)cc(Nc3nc(N[C@@H](CN)CC(C)C)c(F)cc3C(N)=O)cc12 [Example 2-151, (R)-6-((1-amino-4-methylpentan-2-yl)amino)-5-fluoro-2-((7-fluoro-3-methoxy-1-methyl-1H-indazol-5-yl)amino)nicotinamide]
0.13 to 0.2 µM	< 0.01 µM	CCC[C@@H](Nc1nc(Nc2cc(F)c3c(c2)c(OC)nn3C)c(C(N)=O)cc1F)[C@H](C)N [Example 2-153, 6-(((2S,3R)-2-aminohexan-3-yl)amino)-5-fluoro-2-((7-fluoro-3-methoxy-1-methyl-1H-indazol-5-yl)amino)nicotinamide]
0.065 to 0.13 µM	< 0.01 µM	Cc1cccc(Nc2nc(N[C@@H]3CCCC[C@@H]3N)c(F)cc2C(N)=O)c1 [Example 2-434, 6-(((1R,2S)-2-aminocyclohexyl)amino)-5-fluoro-2-(m-tolylamino)nicotinamide]
0.13 to 0.2 µM	< 0.01 µM	CC[C@H](N)[C@H](Nc1nc(Nc2cccc3c2cnn3C)c(C(N)=O)cc1F)C1CC1 [Example 2-546, 6-(((1R,2S)-2-amino-1-cyclopropylbutyl)amino)-5-fluoro-2-((1-methyl-1H-indazol-4-yl)amino)nicotinamide]
0.065 to 0.13 µM	< 0.01 µM	CC[C@@H](Nc1nc(Nc2ccc3onc(OC)c3c2)c(C(N)=O)cc1F)[C@H](C)N [Example 2-57, 6-(((2S,3R)-2-aminopentan-3-yl)amino)-5-fluoro-2-((3-methoxybenzo[d]isoxazol-5-yl)amino)nicotinamide]
0.065 to 0.13 µM	< 0.01 µM	NC(=O)c1cc(F)c(N[C@@H]2CCCC[C@@H]2N)nc1Nc1cccc(Cl)c1 [Example 2-439, 6-(((1R,2S)-2-aminocyclohexyl)amino)-2-((3-chlorophenyl)amino)-5-fluoronicotinamide]
0.13 to 0.2 µM	< 0.01 µM	COc1nn(C)c2ccc(Nc3nc(N[C@@H](CN)CC4CC4)c(F)cc3C(N)=O)cc12 [Example 2-79, (R)-6-((1-amino-3-cyclopropylpropan-2-yl)amino)-5-fluoro-2-((3-methoxy-1-methyl-1H-indazol-5-yl)amino)nicotinamide]
0.065 to 0.13 µM	< 0.01 µM	CC[C@@H](Nc1nc(Nc2ccc3c(c2)c(C)nn3CCOC)c(C(N)=O)cc1F)[C@H](C)N [Example 2-131, 6-(((2S,3R)-2-aminopentan-3-yl)amino)-5-fluoro-2-((1-(2-methoxyethyl)-3-methyl-1H-indazol-5-yl)amino)nicotinamide]
0.13 to 0.2 µM	< 0.01 µM	NC(=O)c1cc(F)c(N[C@@H]2CCCC[C@@H]2N)nc1Nc1ccc(F)cc1 [Example 2-441, 6-(((1R,2S)-2-aminocyclohexyl)amino)-5-fluoro-2-((4-fluorophenyl)amino) nicotinamide]
